Results as given in publication PMC5862592, “CDK8/19 inhibition induces premature G1/S transition and ATR-dependent cell death in prostate cancer cells” (Oncotarget, 2018).
Read-outs that look alike come from different tables or passages of the source.

Experiments:
Test in all cases: biochemical
Design in all cases: KINOMEscan active site-directed competition binding assay (DiscoveRx), 456 kinases, per cent of control at 300 nM
Settings in all cases: read-out: Percent of Control (%)
MYO3A = MYO3A (Homo sapiens, UniProt Q8NEV4)
Description: (§1) Kinase selectivity of T-474 and T-418 was evaluated at 300 nmol/L using a panel of 456 kinases at DiscoveRx (KINOMEscan). The platform employs an active site-directed competition binding assay to quantitatively measure interactions between test compounds and kinases. […] In VCaP prostate cancer cells, treatment with T-474 or T-418 suppressed the phosphorylation of the known CDK8 substrate STAT1 at Ser727 both in the absence and in the presence of IFN-γ (Figure 1B), which stimulates CDK8-mediated STAT1 phosphorylation.

PIM1 = PIM1 (Homo sapiens, UniProt P11309)
Description: as §1

FGFR4 = FGFR4 (Homo sapiens, UniProt P22455)
Description: as §1

[1] = target: T1, RSK1(Kin.Dom.1-N-terminal) (Homo sapiens, UniProt Q15418)
T1 construct: gene RPS6KA1; Kin.Dom.1-N-terminal
Description: as §1

[2] = target: T2, ABL1(H396P)-nonphosphorylated (Homo sapiens, UniProt P00519, H396P)
T2 construct: nonphosphorylated
Description: as §1

HUNK = HUNK (Homo sapiens, UniProt P57058)
Sequence of HUNK (P57058 whole entry): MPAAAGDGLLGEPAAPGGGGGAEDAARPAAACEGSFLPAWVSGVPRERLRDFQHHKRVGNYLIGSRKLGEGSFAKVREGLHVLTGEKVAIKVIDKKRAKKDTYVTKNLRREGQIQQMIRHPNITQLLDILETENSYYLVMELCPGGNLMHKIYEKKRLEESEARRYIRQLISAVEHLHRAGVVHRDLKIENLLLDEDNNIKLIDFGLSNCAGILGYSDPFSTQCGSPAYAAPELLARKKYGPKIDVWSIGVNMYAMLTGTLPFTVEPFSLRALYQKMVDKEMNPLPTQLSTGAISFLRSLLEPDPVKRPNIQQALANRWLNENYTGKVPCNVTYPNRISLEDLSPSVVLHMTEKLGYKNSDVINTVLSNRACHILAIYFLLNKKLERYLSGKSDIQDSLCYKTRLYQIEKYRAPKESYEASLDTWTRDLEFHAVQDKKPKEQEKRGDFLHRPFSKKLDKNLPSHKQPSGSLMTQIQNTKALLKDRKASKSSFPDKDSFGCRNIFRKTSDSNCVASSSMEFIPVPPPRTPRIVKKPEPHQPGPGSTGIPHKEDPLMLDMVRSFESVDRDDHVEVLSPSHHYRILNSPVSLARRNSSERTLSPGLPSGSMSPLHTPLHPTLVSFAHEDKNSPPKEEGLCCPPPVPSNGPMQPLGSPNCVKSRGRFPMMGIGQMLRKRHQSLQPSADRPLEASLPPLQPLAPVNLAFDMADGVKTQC
Description: as §1

HIPK3 = HIPK3 (Homo sapiens, UniProt Q9H422)
Sequence of HIPK3 (Q9H422 whole entry): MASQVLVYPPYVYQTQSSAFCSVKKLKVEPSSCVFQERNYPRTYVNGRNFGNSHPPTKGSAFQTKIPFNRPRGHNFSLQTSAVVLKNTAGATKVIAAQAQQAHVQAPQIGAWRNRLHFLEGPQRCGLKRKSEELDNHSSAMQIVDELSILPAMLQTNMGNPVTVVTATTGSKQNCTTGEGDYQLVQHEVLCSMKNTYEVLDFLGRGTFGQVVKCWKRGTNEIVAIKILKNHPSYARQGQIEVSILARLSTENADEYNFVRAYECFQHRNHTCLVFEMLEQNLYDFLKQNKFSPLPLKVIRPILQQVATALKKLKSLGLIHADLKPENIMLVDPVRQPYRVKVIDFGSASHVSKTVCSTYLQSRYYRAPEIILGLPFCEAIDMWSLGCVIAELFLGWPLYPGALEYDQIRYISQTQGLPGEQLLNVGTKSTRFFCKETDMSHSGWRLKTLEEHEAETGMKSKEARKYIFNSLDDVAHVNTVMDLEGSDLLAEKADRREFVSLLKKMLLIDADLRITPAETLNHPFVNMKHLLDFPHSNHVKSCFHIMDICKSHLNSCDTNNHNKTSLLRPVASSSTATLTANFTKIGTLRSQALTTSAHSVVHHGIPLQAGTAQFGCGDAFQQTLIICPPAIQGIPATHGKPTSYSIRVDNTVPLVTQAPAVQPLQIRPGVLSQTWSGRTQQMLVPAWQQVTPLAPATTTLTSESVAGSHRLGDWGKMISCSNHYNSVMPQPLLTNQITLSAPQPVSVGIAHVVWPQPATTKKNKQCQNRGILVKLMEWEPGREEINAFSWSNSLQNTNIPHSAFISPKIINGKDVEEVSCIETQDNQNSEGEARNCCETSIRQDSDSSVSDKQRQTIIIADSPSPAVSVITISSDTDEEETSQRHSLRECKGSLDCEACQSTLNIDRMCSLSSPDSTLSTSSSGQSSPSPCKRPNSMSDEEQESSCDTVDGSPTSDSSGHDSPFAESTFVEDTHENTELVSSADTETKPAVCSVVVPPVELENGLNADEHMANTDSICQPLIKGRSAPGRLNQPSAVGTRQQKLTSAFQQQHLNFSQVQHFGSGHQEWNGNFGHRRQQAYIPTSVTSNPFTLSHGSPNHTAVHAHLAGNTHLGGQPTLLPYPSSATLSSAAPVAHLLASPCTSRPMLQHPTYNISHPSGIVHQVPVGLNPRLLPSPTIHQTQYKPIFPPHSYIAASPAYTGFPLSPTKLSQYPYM
Description: as §1

PIK3CA(E545A) = PIK3CA(E545A) (Homo sapiens, UniProt P42336, E545A)
Description: as §1

AMPK-alpha2 = target: T3, AMPK-alpha2 (Homo sapiens, UniProt P54646)
T3 construct: gene PRKAA2
T3 sequence (P54646 whole entry): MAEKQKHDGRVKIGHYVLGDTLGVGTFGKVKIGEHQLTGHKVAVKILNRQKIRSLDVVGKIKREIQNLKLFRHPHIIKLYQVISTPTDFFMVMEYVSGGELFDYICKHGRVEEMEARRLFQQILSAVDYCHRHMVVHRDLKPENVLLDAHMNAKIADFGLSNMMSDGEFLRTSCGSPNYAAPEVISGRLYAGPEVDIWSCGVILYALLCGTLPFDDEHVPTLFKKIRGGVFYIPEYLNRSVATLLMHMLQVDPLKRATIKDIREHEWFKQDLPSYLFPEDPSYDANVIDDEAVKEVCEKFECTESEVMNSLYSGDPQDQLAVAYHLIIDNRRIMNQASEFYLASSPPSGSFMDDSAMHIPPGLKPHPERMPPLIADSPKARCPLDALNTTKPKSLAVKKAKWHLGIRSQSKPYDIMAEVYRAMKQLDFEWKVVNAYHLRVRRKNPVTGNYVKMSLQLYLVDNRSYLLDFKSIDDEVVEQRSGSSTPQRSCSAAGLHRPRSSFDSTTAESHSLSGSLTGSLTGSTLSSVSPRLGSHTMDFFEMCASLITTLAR
Description: as §1

IRAK4 = IRAK4 (Homo sapiens, UniProt Q9NWZ3)
Sequence of IRAK4 (Q9NWZ3 whole entry): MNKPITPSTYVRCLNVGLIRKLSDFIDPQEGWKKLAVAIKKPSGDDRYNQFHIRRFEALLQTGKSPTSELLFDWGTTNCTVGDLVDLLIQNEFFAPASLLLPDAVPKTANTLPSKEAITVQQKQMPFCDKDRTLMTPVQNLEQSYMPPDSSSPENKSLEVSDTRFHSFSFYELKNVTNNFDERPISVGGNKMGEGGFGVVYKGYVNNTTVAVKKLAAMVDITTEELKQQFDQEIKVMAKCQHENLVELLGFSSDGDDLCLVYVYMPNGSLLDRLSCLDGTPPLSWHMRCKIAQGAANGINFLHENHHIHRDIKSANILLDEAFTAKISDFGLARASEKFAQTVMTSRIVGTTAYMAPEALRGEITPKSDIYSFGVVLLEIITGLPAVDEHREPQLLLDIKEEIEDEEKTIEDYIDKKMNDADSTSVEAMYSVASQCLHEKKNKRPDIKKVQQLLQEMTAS
Description: as §1

PRKG1 = PRKG1 (Homo sapiens, UniProt Q13976)
Description: as §1

MLK1 = target: T4, MLK1 (Homo sapiens, UniProt P80192)
T4 construct: gene MAP3K9
T4 sequence (P80192 whole entry): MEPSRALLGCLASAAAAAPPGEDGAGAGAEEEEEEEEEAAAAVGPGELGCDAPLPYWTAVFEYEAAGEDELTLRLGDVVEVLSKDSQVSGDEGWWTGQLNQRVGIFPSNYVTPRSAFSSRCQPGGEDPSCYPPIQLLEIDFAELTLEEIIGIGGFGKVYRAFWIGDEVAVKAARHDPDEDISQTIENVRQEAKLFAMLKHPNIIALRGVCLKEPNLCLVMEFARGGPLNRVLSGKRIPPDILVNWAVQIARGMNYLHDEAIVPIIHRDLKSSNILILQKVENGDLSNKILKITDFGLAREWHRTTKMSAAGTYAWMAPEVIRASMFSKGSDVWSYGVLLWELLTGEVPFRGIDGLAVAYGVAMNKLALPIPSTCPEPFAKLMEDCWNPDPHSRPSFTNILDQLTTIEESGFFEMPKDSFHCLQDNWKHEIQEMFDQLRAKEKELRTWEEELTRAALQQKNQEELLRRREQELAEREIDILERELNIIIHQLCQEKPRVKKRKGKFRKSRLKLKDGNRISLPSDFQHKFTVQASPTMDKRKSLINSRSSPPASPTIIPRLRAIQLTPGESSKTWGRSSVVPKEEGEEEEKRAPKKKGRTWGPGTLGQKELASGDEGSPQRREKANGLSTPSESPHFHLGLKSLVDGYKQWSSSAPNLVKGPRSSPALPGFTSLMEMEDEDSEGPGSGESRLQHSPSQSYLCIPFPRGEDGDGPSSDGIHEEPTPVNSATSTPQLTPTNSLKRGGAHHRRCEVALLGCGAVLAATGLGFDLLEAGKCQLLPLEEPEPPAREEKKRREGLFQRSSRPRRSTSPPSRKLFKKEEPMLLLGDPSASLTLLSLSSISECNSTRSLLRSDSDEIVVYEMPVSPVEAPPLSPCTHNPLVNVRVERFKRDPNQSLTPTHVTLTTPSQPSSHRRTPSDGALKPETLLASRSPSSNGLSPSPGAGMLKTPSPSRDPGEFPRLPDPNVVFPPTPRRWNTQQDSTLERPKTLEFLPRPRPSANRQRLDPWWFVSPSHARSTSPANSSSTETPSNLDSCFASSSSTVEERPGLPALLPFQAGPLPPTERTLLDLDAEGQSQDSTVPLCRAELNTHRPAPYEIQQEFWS
Description: as §1

YES = target: T5, YES (Homo sapiens, UniProt P07947)
T5 construct: gene YES1
T5 sequence (P07947 whole entry): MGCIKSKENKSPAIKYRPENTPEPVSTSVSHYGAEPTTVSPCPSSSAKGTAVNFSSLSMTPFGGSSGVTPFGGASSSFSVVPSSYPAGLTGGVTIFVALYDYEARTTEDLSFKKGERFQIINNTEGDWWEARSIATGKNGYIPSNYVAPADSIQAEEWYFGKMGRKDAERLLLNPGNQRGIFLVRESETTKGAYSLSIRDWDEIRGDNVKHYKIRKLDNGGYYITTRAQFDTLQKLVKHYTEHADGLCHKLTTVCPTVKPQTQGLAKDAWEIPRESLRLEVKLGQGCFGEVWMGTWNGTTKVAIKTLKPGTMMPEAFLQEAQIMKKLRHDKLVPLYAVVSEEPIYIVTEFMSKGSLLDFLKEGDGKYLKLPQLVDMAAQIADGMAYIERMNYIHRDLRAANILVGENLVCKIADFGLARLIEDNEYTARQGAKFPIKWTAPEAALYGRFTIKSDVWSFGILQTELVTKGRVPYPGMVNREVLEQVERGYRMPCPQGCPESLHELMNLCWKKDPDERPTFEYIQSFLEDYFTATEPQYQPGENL
Description: as §1

PIK3CA(E545K) = PIK3CA(E545K) (Homo sapiens, UniProt P42336, E545K)
Description: as §1

TRKC = target: T6, TRKC (Homo sapiens, UniProt Q16288)
T6 construct: gene NTRK3
Description: as §1

FLT3 = FLT3 (Homo sapiens, UniProt P36888)
Description: as §1

FLT3(D835H) = FLT3(D835H) (Homo sapiens, UniProt P36888, D835H)
Description: as §1

GSK3A = GSK3A (Homo sapiens, UniProt P49840)
Description: as §1

ERK3 = target: T7, ERK3 (Homo sapiens, UniProt Q16659)
T7 construct: gene MAPK6
Description: as §1

DRAK2 = target: T8, DRAK2 (Homo sapiens, UniProt O94768)
T8 construct: gene STK17B
T8 sequence (O94768 whole entry): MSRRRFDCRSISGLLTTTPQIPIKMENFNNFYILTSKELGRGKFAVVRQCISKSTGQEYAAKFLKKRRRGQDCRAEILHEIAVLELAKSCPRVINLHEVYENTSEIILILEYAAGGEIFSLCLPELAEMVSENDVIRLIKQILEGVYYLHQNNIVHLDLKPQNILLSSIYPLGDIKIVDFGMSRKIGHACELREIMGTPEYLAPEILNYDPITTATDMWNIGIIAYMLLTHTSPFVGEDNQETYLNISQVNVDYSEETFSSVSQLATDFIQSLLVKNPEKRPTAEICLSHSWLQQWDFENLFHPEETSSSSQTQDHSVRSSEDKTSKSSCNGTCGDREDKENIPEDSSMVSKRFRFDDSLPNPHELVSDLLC
Description: as §1

EGFR(E746-A750del) = EGFR(E746-A750del) (Homo sapiens, UniProt P00533, DEL746-750)
Description: as §1

SMILES: Cc1ncccc1Oc1sc(C(N)=O)c2c1-c1c(cnn1C)CC2 [T-474, 1-methyl-8-((2-methylpyridin-3-yl)oxy)-4,5-dihydro-1H-thieno[3,4-g]indazole-6-carboxamide]
- remaining binding at 0.3 µM (MYO3A): 100%
- remaining binding at 0.3 µM (PIM1): 92%
- remaining binding at 0.3 µM (FGFR4): 97%
- remaining binding at 0.3 µM [1]: 95%
- remaining binding at 0.3 µM [2]: 100%
- remaining binding at 0.3 µM (HUNK): 100%
- remaining binding at 0.3 µM (HIPK3): 79%
- remaining binding at 0.3 µM (PIK3CA(E545A)): 69%
- remaining binding at 0.3 µM (AMPK-alpha2): 100%
- remaining binding at 0.3 µM (IRAK4): 100%
- remaining binding at 0.3 µM (PRKG1): 100%
- remaining binding at 0.3 µM (MLK1): 100%
- remaining binding at 0.3 µM (YES): 100%
- remaining binding at 0.3 µM (PIK3CA(E545K)): 100%
- remaining binding at 0.3 µM (TRKC): 87%
- remaining binding at 0.3 µM (FLT3): 100%
- remaining binding at 0.3 µM (FLT3(D835H)): 58%
- remaining binding at 0.3 µM (GSK3A): 70%
- remaining binding at 0.3 µM (ERK3): 78%
- remaining binding at 0.3 µM (DRAK2): 100%
- remaining binding at 0.3 µM (EGFR(E746-A750del)): 87%

SMILES: O=C(/C=C/c1cnccc1-c1ccc(F)cc1)Nc1ccc(CCc2nnco2)cc1 [T-418, (2E)-3-(4-(4-fluorophenyl)pyridin-3-yl)-N-(4-(2-(1,3,4-oxadiazol-2-yl)ethyl)phenyl)acrylamide]
- remaining binding at 0.3 µM (MYO3A; sheet T-418): 100%
- remaining binding at 0.3 µM (PIM1; sheet T-418): 75%
- remaining binding at 0.3 µM (FGFR4; sheet T-418): 80%
- remaining binding at 0.3 µM ([1]; sheet T-418): 78%
- remaining binding at 0.3 µM ([2]; sheet T-418): 97%
- remaining binding at 0.3 µM (HUNK; sheet T-418): 100%
- remaining binding at 0.3 µM (HIPK3; sheet T-418): 64%
- remaining binding at 0.3 µM (PIK3CA(E545A); sheet T-418): 78%
- remaining binding at 0.3 µM (AMPK-alpha2; sheet T-418): 100%
- remaining binding at 0.3 µM (IRAK4; sheet T-418): 100%
- remaining binding at 0.3 µM (PRKG1; sheet T-418): 87%
- remaining binding at 0.3 µM (MLK1; sheet T-418): 100%
- remaining binding at 0.3 µM (YES; sheet T-418): 100%
- remaining binding at 0.3 µM (PIK3CA(E545K); sheet T-418): 82%
- remaining binding at 0.3 µM (TRKC; sheet T-418): 82%
- remaining binding at 0.3 µM (FLT3; sheet T-418): 66%
- remaining binding at 0.3 µM (FLT3(D835H); sheet T-418): 100%
- remaining binding at 0.3 µM (GSK3A; sheet T-418): 64%
- remaining binding at 0.3 µM (ERK3; sheet T-418): 68%
- remaining binding at 0.3 µM (DRAK2; sheet T-418): 94%
- remaining binding at 0.3 µM (EGFR(E746-A750del); sheet T-418): 92%
